Test results reported in patent publication US20100048403A1, “Method of inducing virus tolerance of plants” (BASF SE, priority 2007, published 2010).

Tested on: Cucumber Green Mottle Mosaic Virus (CGMMV)
Assay: Symptom expression of CGMMV in cucumbers treated 7 days before mechanical inoculation
Assay type: in vivo
Conditions: cucumber plants, 500 g product in 200 litres water sprayed to run-off 7 days before inoculation
Method: The experiment tested the effect of boscalid (as Filan®) on the symptom expression of CGMMV in cucumbers. Cucumber plants were treated with Filan or water 7 days before mechanical inoculation with CGMMV. Filan® was applied at 500 g in 200 litres water. Sprays were applied as a fine spray to run-off.
The experiment consisted of 5 plants per each treatment, with three replicates arranged randomly after fungicide treatment, but before inoculation. Plants were then inoculated in situ. Plants were mechanically inoculated at the 4-6 true leaf stage. Cucumber leaves showing symptoms and confirmed by CSL as infected with CGMMV were used as the source of inoculum. Several infected leaves were crushed in a plastic bag with a small amount of distilled water to extract the sap. This sap was then gently rubbed onto the second lowest green leaf of each plant in the experiment. Symptoms of CGMMV were assessed at intervals following inoculation.

SMILES: O=C(Nc1ccccc1-c1ccc(Cl)cc1)c1cccnc1Cl [Boscalid, boscalid]
- Number of leaves with symtoms, 8 days after inoculation (Average) (8 days after inoculation, untreated 2.4): 0.8
- Number of leaves with symtoms, 33 days after inoculation (Average) (33 days after inoculation, untreated 7.4): 4.4
